Patent publication US6355695B1, “Substituted heterocycles” (Zeneca Limited, priority 1995, dated 2002)
Where a name gives a salt, the structure may show the parent alone.

Experiments:
[1] = target: T1, human NK2 receptor expressed in Mouse Erythroleukemia (MEL) cells (Homo sapiens, UniProt P21452); assay: Neurokinin A (NKA) Receptor-binding Assay (Test A)
T1 construct: expressed in transfected cells; host or cells: Mouse Erythroleukemia (MEL) cells
T1 sequence (P21452 1-398): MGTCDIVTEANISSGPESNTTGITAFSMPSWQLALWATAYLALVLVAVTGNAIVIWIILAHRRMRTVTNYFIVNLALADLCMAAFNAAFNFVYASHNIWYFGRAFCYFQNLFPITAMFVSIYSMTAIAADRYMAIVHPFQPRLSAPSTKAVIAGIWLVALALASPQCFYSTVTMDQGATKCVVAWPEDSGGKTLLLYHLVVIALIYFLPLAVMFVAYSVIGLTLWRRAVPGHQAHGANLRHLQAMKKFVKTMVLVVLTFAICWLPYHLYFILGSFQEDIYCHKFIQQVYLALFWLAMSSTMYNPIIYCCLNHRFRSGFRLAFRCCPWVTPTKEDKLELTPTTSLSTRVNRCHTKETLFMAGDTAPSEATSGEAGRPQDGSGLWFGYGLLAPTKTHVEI
From the text: Neurokinin A (NKA) Receptor-binding Assay (Test A)

[2] = tested on: guinea pig trachea; assay: Guinea Pig Assay (Test B): functional assay in guinea pig trachea, antagonism of agonist NKA or [b-ala^8]-NKA(4-10); assay type: cell-based; conditions: Cavia porcellus, read-out: pKB in Test B (converted)
From the text: Guinea Pig Assay (Test B)

Row | SMILES | Ki [1] | Kb [2]
1 | OC1(c2ccccc2)CCN(CCC(Cn2ccnc2-c2ccccc2)c2ccc(Cl)c(Cl)c2)CC1 (centres unmarked) [Example 2, 1-[3-(3,4-Dichlorophenyl)-4-(2-phenylimidazol-1-yl)butyl]-4-hydroxy-4-phenylpiperidine dihydrochloride] | 23 nM | –
2 | O=C1NCCCN1C1CCN(CCC(Cn2cnnc2-c2ccccc2)c2ccc(Cl)c(Cl)c2)CC1 (centres unmarked) [Example 3, 1-[1-[3-(3,4-Dichlorophenyl)-4-(2-phenyl-1,3,4-triazol-1-yl)butyl]piperidin-4-yl]tetrahydropyrimidin-2-one hydrochloride] | – | 2 nM
